Laboratory results published in patent US12103924B2, “Mitogen-activated protein kinase kinase (MEK) degradation compounds and methods of use” (Icahn School of Medicine at Mount Sinai, priority 2020, dated 2024).

Assays:
MEK1/2 [1] = assay: Western blot of MEK1/2 protein levels in HT-29 cells; assay type: cell-based
Experimental: Compound concentrations are 0.3 μM, 1 μM and 3 μM.
(§1) The indicated protein levels were determined by Western blots.
(§2) The sample was centrifuged at 12,000 g for 10 min at 4° C. to get supernatant as cell lysate. Protein concentrations were quantified using Pierce rapid gold BCA protein assay kit.

pMEK and pERK [2] = assay: Western blot of MEK and ERK phosphorylation in SK-MEL-28 cells
MEK1 and MEK2 proteins = assay: Global proteome analysis of HT-29 cells; assay type: cell-based, human; details: 10 h, 0.1 μM, versus 0.1% DMSO
Experimental: […] […] P values were calculated from the data of two technical replicates. (A) DMSO compared to CPD-031 treated samples; (B) CPD-034 compared to CPD-031 treated samples; (C) DMSO compared to CPD-034 treated samples.
Proteins outside the significance lines were labeled with pink or purple color (FDR=0.05, S0=1). P values were calculated from the data of two technical replicates.
Protein Extraction and Digestion. Cells with indicated treatments were harvested and lysed in lysis buffer (6 M guanidine hydrochloride, 100 mM Tris-HCl pH 8.0). Sonication (5 s on, 5 s off, 2×30 s) was performed to shear genome DNA. Lysate were centrifugated for 30 min at 3,500 g at 4° C. and the supernatant were transferred to a clean tube, diluted 50% with Milli-Q H2O, then precipitated by addition of cold acetone (four times the original volume), and placed at −20° C. overnight. Precipitated proteins were brought down at 20,000 g at 4° C. for 10 min, and washed with cold acetone after discarding the supernatant. The pellet was air-dried at RT for 5 min and solubilized with 50 mM Tris-HCl (PH 8.0), 8 M urea. Protein concentration was determined (BCA assay) and protein was reduced with 5 mM DTT (dithiothreitol), alkylated with 15 mM IAA (iodoacetamide) in the dark, then diluted with buffer 25 mM Tris (pH 8.0) and 1 mM CaCl2 (three times the original volume). The final urea concentration is 2 M. Trypsin was added into protein solution with 1:100 ratio (trypsin:protein), and digested 12-16 h or overnight at RT.
Mass Spectrometry Analysis. Peptides were cleaned up by C18 stage tips and the concentration was determined (Peptide assay, 23275, Thermo Fisher Scientific). The clean peptides were dissolved in 0.1% formic acid and analyzed on a Q-Exactive HF-X coupled with an Easy nanoLC 1200 (Thermo Fisher Scientific, San Jose, CA). 0.5 μg of peptides were loaded onto an Acclain PepMap RSLC C18 Column (250 mm×75 μm ID, C18, 2 μm, Thermo Fisher Scientific). […] A linear gradient of 5 to 30% buffer B over 110 min was executed at a 300 nl/min flow rate followed a ramp to 100% B in 5 min, and 15-min wash with 100% B, where buffer A was aqueous 0.1% formic acid, and buffer B was 80% acetonitrile and 0.1% formic acid.
LC-MS experiments were performed in a data-dependent mode with full MS (externally calibrated to a mass accuracy of <5 ppm and a resolution of 60,000 at m/z 200) followed by high energy collision-activated dissociation-MS/MS of the top 20 most intense ions with a resolution of 15,000 at m/z 200. High energy collision-activated dissociation-MS/MS was used to dissociate peptides at a normalized collision energy of 27 eV in the presence of nitrogen bath gas atoms. Dynamic exclusion was 30.0 seconds. Each sample was subjected to two technical LC-MS replicates.
MS Data Analysis. Mass spectra processing and peptide identification were performed on the Andromeda search engine in MaxQuant software (Version 1.6.0.16) against the human UniProt database (UP000005640). All searches were conducted with a defined modification of cysteine carbamidomethylation, with methionine oxidation and protein amino-terminal acetylation as dynamic modifications. Peptides were confidently identified using a target-decoy approach with a peptide false discovery rate (FDR) of 1% and a protein FDR of 1%. A minimum peptide length of 7 amino acids was required, maximally two missed cleavages were allowed, initial mass deviation for precursor ion was up to 7 ppm, and the maximum allowed mass deviation for fragment ions was 0.5 Da. Data processing and statistical analysis were performed on Perseus (Version 1.6.0.7). Protein quantitation was performed on duplicate runs, and a two-sample t-test statistics was used to report statistically significant expression fold-changes.

MEK1/2 [3] = assay: Western blot of MEK1/2 protein levels in SK-MEL-28 cells
Experimental: as §1, §2

pMEK and pERK [4] = assay: Western blot of MEK and ERK phosphorylation in HT-29 cells; assay type: cell-based
MEK2 = molecular target: T1, MEK2 (Homo sapiens, UniProt P36507); assay: HotSpot kinase inhibition assay, MEK2; assay type: biochemical; details: MEK2 150 nM, ERK K52R substrate, 33P-ATP, normalized with DMSO
T1 construct: purchased Thermo Fisher Scientific PV3615

MEK1 = molecular target: T2, MEK1 (Homo sapiens, UniProt Q02750); assay: HotSpot kinase inhibition assay, MEK1; assay type: biochemical; details: MEK1 100 nM, ERK K52R substrate, 33P-ATP, normalized with DMSO
T2 construct: purchased Thermo Fisher Scientific PV3303

MEK1/2 [5] = assay: Rescue experiments (pretreatment) in HT-29 cells, western blot; assay type: cell-based; details: 2 h pretreatment with PD0325901 (1 μM), MG-132 (3 μM), MLN4924 (1 μM) or VH 032 (10 μM), then 10 h with 0.3 μM CPD-031
Experimental: The cells were incubated for another 8 h.
as §2

SK-MEL-28 cells = assay: MTT cell viability assay, SK-MEL-28; assay type: cell-based; details: MTT 3 d, clonogenic assay 14 d at 10, 30 and 100 nM
Experimental: Clonogenic assay was performed in HT-29 (C) and SK-MEL-28 (D) cells for 14 d treatment with DMSO or indicated compounds with 10, 30 and 100 nM, in duplicate, respectively. Cells were then stained by crystal violet.
Cells (2000 cells per well) were seeded into 96-well microplates. After 20 h, cells were treated with 0.1% DMSO or indicated serial dilutions of compounds in duplicate or triplicate for 3 days. Cell viability was tested using MTT (M6494, Thermo Fisher Scientific) or WST-8 reagent (CK04, Dojindo). Briefly, 12 mM MTT was prepared in PBS or WST-8 reagent was warmed up to room temperature. 20 μL MTT or CCK-8 was then added to each well and the plates were kept in incubator at 37° C. for 3 h in the dark. For the WST-8 assay, signal was obtained after the incubation. For the MTT assay, cell medium was replaced with 200 μL of DMSO after the incubation, and then cell plates were kept at 37° C. for another 30 min. Absorbance signals for MTT and WST-8 were read at 540 nm and 450 nm respectively, with 690 nm as reference performed with Infinite F PLEX plate reader (TECAN, Morrisville, NC, USA). GI50 values were analyzed using GraphPad Prism 8 from the data of at least three independent experiments.
HT-29 or SK-MEL-28 cells (300 cells per well) were seeded in 12-well plates. After 20 h, cells were treated with DMSO or indicated concentrations of compounds in duplicate for two weeks. […]

HT-29 cells = assay: MTT cell viability assay, HT-29; assay type: cell-based
Experimental: MTT assay was conducted for HT-29 cells after 3 d treatment with indicated compounds with serial dilutions.
MTT assay was conducted for HT-29 (A) and SK-MEL-28 (B) cells after 3 d treatment with DMSO or indicated compounds with serial dilutions. Clonogenic assay was performed in HT-29 (C) and SK-MEL-28 (D) cells for 14 d treatment with DMSO or indicated compounds with 10, 30 and 100 nM, in duplicate, respectively. Cells were then stained by crystal violet.
HT-29 or SK-MEL-28 cells (300 cells per well) were seeded in 12-well plates. After 20 h, cells were treated with DMSO or indicated concentrations of compounds in duplicate for two weeks. Medium containing indicated compounds was changed every 3 days. Cells were then fixed and stained with the solution containing 6% (v/v) glutaraldehyde (G5882, Sigma-Aldrich) and 0.5% (w/v) crystal violet for 1 h. To remove the background color, the plates with stained cells were immersed in running water until clear colonies were observed. The plates were dried at RT. The staining images were obtained with Epson Perfection V600 Photo.

MEK1/2 [6] = assay: Rescue experiments (pretreatment) in SK-MEL-28 cells, western blot; assay type: cell-based; details: 2 h pretreatment with PD0325901 (1 μM), MG-132 (3 μM), MLN4924 (1 μM) or VH 032 (10 μM), then 10 h with 0.3 μM CPD-031
[7] = HT-29 cells, 0.1 μM or 0.3 μM, harvested at indicated time points
[8] = HT-29 cells, 0.1, 0.3, or 1 μM, 24 h
[9] = HT-29 cells, serial dilution, 24 h, western blot
[10] = SK-MEL-28 cells, 0.1 μM or 0.3 μM, harvested at indicated time points
[11] = SK-MEL-28 cells, 0.1, 0.3, or 1 μM, 24 h
[12] = SK-MEL-28 cells, serial dilution, 24 h, western blot

T2 sequence (Q02750 whole entry): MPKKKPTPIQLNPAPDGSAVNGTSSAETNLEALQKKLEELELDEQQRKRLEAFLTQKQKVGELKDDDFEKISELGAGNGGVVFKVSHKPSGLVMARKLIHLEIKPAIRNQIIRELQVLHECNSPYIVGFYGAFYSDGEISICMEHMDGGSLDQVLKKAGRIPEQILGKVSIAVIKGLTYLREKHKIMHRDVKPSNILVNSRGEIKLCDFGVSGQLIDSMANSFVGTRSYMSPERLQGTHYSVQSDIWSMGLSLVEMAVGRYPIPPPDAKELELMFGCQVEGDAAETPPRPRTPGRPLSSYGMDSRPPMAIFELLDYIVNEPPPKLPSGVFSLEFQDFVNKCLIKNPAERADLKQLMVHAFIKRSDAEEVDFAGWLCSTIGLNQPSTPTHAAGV
T1 sequence (P36507 whole entry): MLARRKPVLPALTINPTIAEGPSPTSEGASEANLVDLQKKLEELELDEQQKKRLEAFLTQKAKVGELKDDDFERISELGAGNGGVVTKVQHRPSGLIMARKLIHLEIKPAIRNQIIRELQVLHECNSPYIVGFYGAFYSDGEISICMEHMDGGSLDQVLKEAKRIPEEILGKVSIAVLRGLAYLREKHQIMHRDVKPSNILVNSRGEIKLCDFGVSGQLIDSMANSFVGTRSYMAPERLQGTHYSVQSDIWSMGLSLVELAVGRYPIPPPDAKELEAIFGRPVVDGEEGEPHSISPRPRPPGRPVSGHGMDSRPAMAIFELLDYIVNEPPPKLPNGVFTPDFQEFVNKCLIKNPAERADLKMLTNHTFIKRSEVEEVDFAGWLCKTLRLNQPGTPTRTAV

Cc1ncsc1-c1ccc([C@H](C)NC(=O)[C@@H]2C[C@@H](O)CN2C(=O)[C@@H](NC(=O)CCCCCCCCCCNCCCONC(=O)c2ccc(F)c(F)c2Nc2ccc(I)cc2F)C(C)(C)C)cc1 [CPD-031, (2S,4R)-1-((S)-20-(tert-butyl)-1-(3,4-difluoro-2-((2-fluoro-4-iodophenyl)amino)phenyl)-1,18-dioxo-3-oxa-2,7,19-triazahenicosan-21-oyl)-4-hydroxy-N—((S)-1-(4-(4-methylthiazol-5-yl)phenyl)ethyl)pyrrolidine-2-carboxamide]
selectively degraded: protein levels in the global proteomic study (MEK1 and MEK2 proteins)
0.13 ± 0.04 µM: GI50 (HT-29 cells; Homo sapiens, 72 h, MTT assay, 3 d treatment, serial dilutions)
reduced: MEK1 and MEK2 protein levels, time-dependent (MEK1/2 [1]; [7]) | MEK1 and MEK2 protein levels (MEK1/2 [1]; [8]) | MEK1 and MEK2 protein levels, concentration-dependent (MEK1/2 [1]; [9]) | MEK1 and MEK2 protein levels, time-dependent (MEK1/2 [3]; [10]) | MEK1 and MEK2 protein levels (MEK1/2 [3]; [11]) | MEK1 and MEK2 protein levels, concentration-dependent (MEK1/2 [3]; [12])
significantly impaired: potency at degradation of MEK1 and MEK2 and inhibition of MEK phosphorylation after pretreatment (MEK1/2 [5]) | potency at degradation of MEK1 and MEK2 and inhibition of MEK phosphorylation after pretreatment (MEK1/2 [6])
more potent: inhibition of MEK and ERK phosphorylation compared with CPD-034 (pMEK and pERK [2]; [11]) | inhibition of MEK and ERK phosphorylation compared with CPD-034 (pMEK and pERK [4]; [8]) | inhibition of the growth of cells compared with CPD-034 (SK-MEL-28 cells) | inhibition of the growth of cells compared with CPD-034 (HT-29 cells; MTT 3 d, clonogenic assay 14 d at 10, 30 and 100 nM)
inhibited: phosphorylation of MEK and ERK / pERK signaling, time-dependent (pMEK and pERK [2]; [10]) | phosphorylation of MEK and ERK proteins, concentration-dependent (pMEK and pERK [2]; [12]) | phosphorylation of MEK and ERK / pERK signaling, time-dependent (pMEK and pERK [4]; [7]) | phosphorylation of MEK and ERK proteins, concentration-dependent (pMEK and pERK [4]; [9]) | MEK2 kinase activity (MEK2) | MEK1 kinase activity (MEK1)
